Patent US20190194179A1, “ANTIBIOTIC COMPOUNDS” (DISCUVA LTD., priority 2016, published 2019)
Counter-ions that a name gives are not always drawn.

Each molecule was assayed on Neisseria gonorrhoeae (assay: EC50 determination: plate-based broth growth assay (absorbance at 600 nm) of Neisseria gonorrhoeae). Conditions: absorbance 600 nm after 20 hours at 37° C./5% CO2, read-out: IC50 (Inhibitory concentration) against Neisseria gonorrhoeae.
Type: cell-based
Outline: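 Mid-log culture diluted to ~10^5 cells/ml as inoculum and grown 20 hours at 37° C./5% CO2 across a 10-point compound dilution series. Growth read as absorbance at 600 nm; EC50 taken from transformed data as the concentration giving 50% response relative to no-compound controls.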

`O=C(NC1CC1)c1csc(Nc2nc3cc(C(F)(F)F)ccc3o2)n1` [Example 1, N-Cyclopropyl-2-((5-(trifluoromethyl)benzo[d]oxazol-2-yl)amino)thiazole-4-carboxamide] and `O=C(NC1CC1)c1csc(Nc2nc3ccc(C(F)(F)F)cc3o2)n1` [Example 26, N-Cyclopropyl-2-((6-(trifluoromethyl)benzo[d]oxazol-2-yl)amino)thiazole-4-carboxamide] cannot be ordered by IC50: no more than 1 µM for the first, no more than 0.1 µM for the second.

`COc1cc2oc(Nc3nnco3)nc2cc1C` [Example 208, 6-Methoxy-5-methyl-N-(1,3,4-oxadiazol-2-yl)benzo[d]oxa-zol-2-amine] and `Cc1cc2oc(Nc3nnco3)nc2cc1Cl` [Example 187, 5-Chloro-6-methyl-N-(1,3,4-oxadiazol-2-yl)benzo[d]ox-azol-2-amine] cannot be ordered by IC50: no more than 1 µM for the first, no more than 0.1 µM for the second.

`Cc1nnc(Nc2nc3ccc(Cl)cc3o2)o1` [Example 109, 6-Chloro-N-(5-methyl-1,3,4-oxadiazol-2-yl)benzo[d]oxazol-2-amine] and `CN(C)Cc1nnc(Nc2nc3ccc(Cl)cc3o2)o1` [Example 81, 6-Chloro-N-(5-((dimethylamino)methyl)-1,3,4-oxadiazol-2-yl)benzo[d]oxazol-2-amine] cannot be ordered by IC50: no more than 0.1 µM for the first, no more than 1 µM for the second.

`CN1CCC[C@@H]1c1nnc(Nc2nc3cc(C(F)(F)F)ccc3o2)o1` [Example 127, (R)-N-(5-(1-methylpyrrolidin-2-yl)-1,3,4-oxadiazol-2-yl)-5-(trifluoromethyl)benzo[d]oxazol-2-amine] and `CC1CCCN1Cc1nnc(Nc2nc3cc(C(F)(F)F)ccc3o2)o1` (stereo not shown) [Example 73, N-(5-((2-Methylpyrrolidin-1-yl)methyl)-1,3,4-oxadiazol-2-yl)-5-(trifluoromethyl)benzo[d]oxazol-2-amine] cannot be ordered by IC50: no more than 1 µM for the first, no more than 1 µM for the second.

`COC(=O)c1ccc2[nH]c(Nc3nnc(C)o3)nc2c1` [Example 84, Methyl 2-((5-methyl-1,3,4-oxadiazol-2-yl)amino)-1H-benzo[d]imidazole-5-carboxylate] and `CCOC(=O)c1nnc(Nc2nc3ccc(Cl)cc3o2)o1` [Example 61, Ethyl 5-((6-chlorobenzo[d]oxazol-2-yl)amino)-1,3,4-oxadiazole-2-carboxylate] cannot be ordered by IC50: no more than 10 µM for the first, no more than 0.1 µM for the second.

`OCc1ccc2nc(Nc3nnco3)oc2c1` [Example 181, (2-((1,3,4-Oxadiazol-2-yl)amino)ben-zo[d]oxazol-6-yl)methanol] and `Brc1ccc2nc(Nc3nnco3)oc2c1` [Example 179, 6-Bromo-N-(1,3,4-oxadiazol-2-yl)benzo[d]ox-azol-2-amine] cannot be ordered by IC50: no more than 10 µM for the first, no more than 0.1 µM for the second.

`CNCc1nnc(Nc2nc3cc(C(F)(F)F)ccc3o2)o1` [Example 93, N-(5-((Methylamino)methyl)-1,3,4-oxadiazol-2-yl)-5-(trifluoromethyl)benzo[d]oxazol-2-amine] and `Cc1nnc(Nc2nc3cc(C(F)(F)F)ccc3o2)o1` [Example 22, N-(5-Methyl-1,3,4-oxadiazol-2-yl)-5-(trifluoromethyl)benzo[d]oxazol-2-amine] cannot be ordered by IC50: no more than 10 µM for the first, no more than 1 µM for the second.

`FC(F)(F)c1cc2nc(Nc3nnc[nH]3)oc2cc1Cl` [Example 43, 6-Chloro-N-(4H-1,2,4-triazol-3-yl)-5-(trifluoromethyl)benzo[d]oxazol-2-amine] and `FC(F)(F)c1cc2nc(Nc3nnco3)oc2cc1Cl` [Example 138, 6-Chloro-N-(1,3,4-oxadiazol-2-yl)-5-(trifluoromethyl)benzo[d]oxazol-2-amine] cannot be ordered by IC50: no more than 0.1 µM for the first, no more than 0.1 µM for the second.

`NC(=O)c1csc(Nc2nc3ccc(C(F)(F)F)cc3o2)n1` [Example 101, 2-((6-(trifluoromethyl)benzo[d]oxazol-2-yl)amino)thiazole-4-carboxamide] and `FC(F)(F)c1ccc2oc(Nc3nncs3)nc2c1` [Example 14, N-(1,3,4-Thiadiazol-2-yl)-5-(trifluoromethyl)benzo[d]oxazol-2-amine] cannot be ordered by IC50: no more than 1 µM for the first, no more than 1 µM for the second.

`Cn1c(Nc2nnco2)nc2ccc(Cl)cc21` [Example 92, N-(6-Chloro-1-methyl-1H-benzo[d]imidazol-2-yl)-1,3,4-oxadiazol-2-amine] and `Clc1ccc2nc(Nc3nnco3)oc2c1` [Example 115, 6-Chloro-N-(1,3,4-oxadiazol-2-yl)benzo[d]oxazol-2-amine] cannot be ordered by IC50: no more than 100 µM for the first, no more than 1 µM for the second.

`c1nnc(Nc2nc3ccc(N4CCOCC4)cc3o2)o1` [Example 185, 6-Morpholino-N-(1,3,4-oxadiazol-2-yl)benzo[d]ox-azol-2-amine] and `c1nnc(Nc2nc3ccc(N4CCCC4)cc3o2)o1` [Example 183, N-(1,3,4-oxadiazol-2-yl)-6-(pyrrolidin-1-yl)benzo[d]ox-azol-2-amine] cannot be ordered by IC50: no more than 10 µM for the first, no more than 1 µM for the second.

`CN1CCc2oc(Nc3nc4cc(C(F)(F)F)ccc4o3)nc2C1` [Example 156, 5-Methyl-N-(5-(trifluoromethyl)benzo[d]oxazol-2-yl)-4,5,6,7-tetrahydrooxazolo[4,5-c]pyridin-2-amine] and `FC1(F)CCN(Cc2nnc(Nc3nc4cc(C(F)(F)F)ccc4o3)o2)C1` [Example 74, N-(5-((3,3-diFluoropyrrolidin-1-yl)methyl)-1,3,4-oxadiazol-2-yl)-5-(trifluoromethyl)benzo[d]oxazol-2-amine] cannot be ordered by IC50: no more than 1 µM for the first, no more than 1 µM for the second.

`Clc1ccc2nc(Nc3nnc(CN4CCCC4)o3)oc2c1` [Example 77, 6-Chloro-N-(5-(pyrrolidin-1-ylmethyl)-1,3,4-oxadiazol-2-yl)benzo[d]oxazol-2-amine] and `Clc1ccc2nc(Nc3nnc[nH]3)oc2c1` [Example 150, 6-Chloro-N-(4H-1,2,4-triazol-3-yl)benzo[d]oxazol-2-amine] cannot be ordered by IC50: no more than 0.1 µM for the first, no more than 1 µM for the second.

`Clc1ccc2nc(Nc3ccsn3)oc2c1` [Example 222, 6-Chloro-N-(isothiazol-3-yl)benzo[d]oxazol-2-amine] and `Clc1ccc2oc(Nc3cscn3)nc2c1` [Example 173, 5-Chloro-N-(thiazol-4-yl)benzo[d]oxazol-2-amine] cannot be ordered by IC50: no more than 1 µM for the first, no more than 10 µM for the second.

`O=C(NC1CC1)c1nnc(Nc2nc3ccc(C(F)(F)F)cc3o2)o1` [Example 30, N-Cyclopropyl-5-((6-(trifluoromethyl)benzo[d]oxazol-2-yl)amino)-1,3,4-oxadiazol-2-carboxamide] and `O=C(NC1CC1)c1cnc(Nc2nc3cc(C(F)(F)F)ccc3o2)s1` [Example 37, N-Cyclopropyl-2-((5-(trifluoromethyl)benzo[d]oxazol-2-yl)amino)thiazole-5-carboxamide] cannot be ordered by IC50: no more than 100 µM for the first, no more than 10 µM for the second.

`Cc1nnc(Nc2nc3c(F)cccc3o2)[nH]1` [Example 124, 4-Fluoro-N-(5-methyl-4H-1,2,4-triazol-3-yl)benzo[d]oxazol-2-amine] and `Cc1nnc(Nc2nc3cccc(Cl)c3o2)[nH]1` [Example 121, 7-Chloro-N-(5-methyl-4H-1,2,4-triazol-3-yl)benzo[d]oxazol-2-amine] cannot be ordered by IC50: no more than 1 µM for the first, no more than 0.1 µM for the second.

`CCOC(=O)c1nnc(Nc2nc3cc(C(F)(F)F)c(Cl)cc3o2)o1` [Example 65, Ethyl 5-((6-chloro-5-(trifluoromethyl)benzo[d]oxazol-2-yl)amino)-1,3,4-oxadiazole-2-carboxylate] and `Cn1cnc(Nc2nc3cc(C(F)(F)F)c(Cl)cc3o2)c1` [Example 140, 6-Chloro-N-(1-methyl-1H-imidazol-4-yl)-5-(trifluoromethyl)benzo[d]oxazol-2-amine] cannot be ordered by IC50: no more than 0.1 µM for the first, no more than 1 µM for the second.

`CN(C)CCNC(=O)c1csc(Nc2nc3cc(Cl)ccc3o2)n1` [Example 97, 2-((5-Chlorobenzo[d]oxazol-2-yl)amino)-N-(2-(dimethylamino)ethyl)thiazole-4-carboxamide] and `O=C(NC1CC1)c1csc(Nc2nc3ccc(Cl)cc3o2)n1` [Example 20, 2-((6-Chlorobenzo[d]oxazol-2-yl)amino)-N-cyclopropylthiazole-4-carboxamide] cannot be ordered by IC50: no more than 1 µM for the first, no more than 0.1 µM for the second.

`Fc1cc2nc(Nc3nnco3)oc2cc1OC(F)(F)F` [Example 174, 5-Fluoro-N-(1,3,4-oxadiazol-2-yl)-6-(trifluoromethoxy)benzo[d]oxazol-2-amine] and `FC(F)(F)Oc1cc2nc(Nc3nnco3)oc2cc1Cl` [Example 205, 6-Chloro-N-(1,3,4-oxadiazol-2-yl)-5-(trifluoro-methoxy)benzo [d]ox-azol-2-amine] cannot be ordered by IC50: no more than 0.1 µM for the first, no more than 1 µM for the second.

`CN1CCN(c2cnc(Nc3nc4cc(C(F)(F)F)ccc4o3)s2)CC1` [Example 32, N-(5-(4-Methylpiperazin-1-yl)thiazol-2-yl)-5-(trifluoromethyl)benzo[d]oxazol-2-amine] and `FC(F)(F)c1ccc2nc(Nc3ncc(N4CCNCC4)s3)oc2c1` [Example 49, N-(5-(Piperazin-1-yl)thiazol-2-yl)-6-(trifluoromethyl)benzo[d]oxazol-2-amine hydrochloride] cannot be ordered by IC50: no more than 1 µM for the first, no more than 1 µM for the second.

`FC(F)(F)c1ccc2oc(Nc3ccon3)nc2c1` [Example 11, N-(Isoxazol-3-yl)-5-(trifluoromethyl)benzo[d]oxazol-2-amine] and `FC(F)(F)c1ccc2oc(Nc3nnc[nH]3)nc2c1` [Example 116, N-(4H-1,2,4-Triazol-3-yl)-5-(trifluoromethyl)benzo[d]oxazol-2-amine] cannot be ordered by IC50: no more than 1 µM for the first, no more than 1 µM for the second.

`Cc1nnc(Nc2nc3ccc(C(F)(F)F)cc3n2C)o1` [Example 89, 5-Methyl-N-(1-methyl-6-(trifluoromethyl)-1H-benzo[d]imidazol-2-yl)-1,3,4-oxadiazol-2-amine] and `Cc1nnc(Nc2nc3cnc(C(F)(F)F)cc3o2)o1` [Example 53, N-(5-Methyl-1,3,4-oxadiazol-2-yl)-6-(trifluoromethyl)oxazolo[4,5-c]pyridin-2-amine] cannot be ordered by IC50: no more than 1 µM for the first, no more than 10 µM for the second.

`O=C(c1nnc(Nc2nc3c(Cl)cc(Cl)cc3o2)o1)N1CCCC1` [Example 133, (5-((4,6-Dichlorobenzo[d]oxazol-2-yl)amino)-1,3,4-oxadiazol-2-yl)(pyrrolidin-1-yl)methanone] and `FC(F)(F)Oc1ccc2nc(Nc3nnco3)oc2c1` [Example 210, N-(1,3,4-Oxadiazol-2-yl)-6-(trifluoromethoxy) benzo[d]ox-azol-2-amine] cannot be ordered by IC50: no more than 1 µM for the first, no more than 0.1 µM for the second.
